In patent publication US8076323B2, “Anti-inflammatory agents” (Cambridge Enterprise Limited, priority 2005, dated 2011):
One block for each molecule: values may come before it. Bridges are numbered along the chain shown (N, C = ends). Where no end group is shown, it is not given here. [ ]: non-standard residue; d: D form.

Columns and labels:
[1] = test system: chemokine-induced migration; conditions: cited from earlier work
[2] = oral route or injection; comparable to dexamethasone; cited from earlier work
stability in human serum = type: in vitro ADME; conditions: 37° C.
[3] = test system: chemokine-induced migration; experiment: chemokine-induced leukocyte migration in vitro (prior work); type: cell-based; conditions: compared with (S)-3-(undec-10-enoyl)-aminoglutarimide
[4] = cited from earlier work

Molecule: O=C1NCCCC[C@@H]1NC(=O)C12CC3CC(CC(C3)C1)C2 [(S)-3-(1′-adamantanecarbonylamino)caprolactam]
inhibition of leukocyte migration or recruitment in vitro (in words) [1]: potent inhibitor
anti-inflammatory activity in vivo (in words) [2]: powerful anti-inflammatory activity

time completely stable in human serum (stability in human serum): at least 7 days
Molecule: C=CCCCCCCCCC(=O)[C@@H]1CCCNC1=O [(S)-3-(undec-10-enoyl)-tetrahydropyridin-2-one]
potency compared with the parental molecule [3]: considerably reduced potency

Molecule: c(DCys-DGin-DIle-DTrp-DLys-DGln-DLys-DPro-DAsp-DLeu-DCys)-NH2 ([dC][dQ][dI][dW][dK][dQ][dK][dP][dD][dL][dC]-NH2; disulfide 1-11 (inferred)) [NR58-3.14.3]
half-life period of clearance from blood plasma ([4]; after intravenous injection): less than 30 minutes
oral bioavailability ([4]; in vivo, po): not orally bioavailable
